Experimental findings from patent publication US20250042889A1, “3CLPRO PROTEASE INHIBITOR” (SHANGHAI QILU PHARMACEUTICAL RESEARCH AND DEVELOPMENT …, priority 2021, published 2025) are described below.

One assay addresses SARS-COV-2 3CLpro/Mpro protease (Severe acute respiratory syndrome coronavirus 2 (2019-nCoV) (SARS-CoV-2), UniProt P0DTD1). The assay is described as follows: Inhibitory effect on SARS-COV-2 3CLpro/Mpro protease by fluorescence resonance energy transfer. To be noted: IC50 (nM), Inhibition on SARS-CoV-2 3CLpro/Mpro protease, activity intervals A-D. Format: biochemical.
`CNc1cncc(C(=O)N2CCC[C@@H](Nc3c(C(=O)N4C5CCC4COC5)cc(Br)cc3[N+](=O)[O-])C2)c1` [Example 358] came in with an IC50 of 10 to 50 nM.

The assay is the same for the next values; noted with them: activity intervals A-D, read-out: IC50 (nM), Inhibition on SARS-CoV-2 3CLpro/Mpro protease.
As for `CNc1cncc(C(=O)N2C[C@H](Nc3c(C(=O)N4C[C@@H](C)O[C@@H](C)C4)cc(Br)cc3[N+](=O)[O-])C[C@H]2C(=O)Nc2cn(C)nc2Br)c1` [Example 412], the IC50 was in the range of 50 to 100 nM.
For the molecule `O=C(c1cc(=O)[nH]c(=O)[nH]1)N1CCC[C@@H](Nc2c(C(=O)N3CCC(F)(F)CC3)cc(Br)cc2[N+](=O)[O-])C1` [Example 53], the IC50 is 50 to 100 nM.
Consider `CNc1cncc(C(=O)N2CCC[C@@H](Nc3c(C(=O)N4CCC(OC)(C(F)(F)F)CC4)cc(Br)cc3[N+](=O)[O-])C2)c1` [Example 281], for which the IC50 lay in the range of 50 to 100 nM.
Regarding `CNc1cncc(C(=O)N2C[C@H](Nc3c(C(=O)N4C[C@@H](C)O[C@@H](C)C4)cc(Br)cc3[N+](=O)[O-])[C@@H](OCc3ccc(OC)nc3)C2)c1` [Example 456, (5-Bromo-2-(((3S,4S)-4-((6-methoxypyridin-3-yl)methoxy)-1-(5-methylamino)nicotinoyl)pyrrolidin-3-amino)-3-nitrophenyl)((2S,6R)-2,6-dimethylmorpholinyl)methanone], the IC50 fell in the range of 10 to 50 nM.
For the molecule `CNc1cncc(C(=O)N2C[C@H](Nc3c(C(=O)N4C[C@@H](C)O[C@@H](C)C4)cc(Br)cc3[N+](=O)[O-])C[C@H]2C(=O)N2CCNC(=O)C2)c1` [Example 364], the IC50 lay within 50 to 100 nM.
As for `O=C(N[C@H]1CCCC[C@H]1Nc1c(C(=O)N2CCC3(CC2)COC3)cc(Br)cc1[N+](=O)[O-])c1cncc2cc(Cl)ccc12` [Example 132], the IC50 lay within 10 to 50 nM.
The same measure, in the same setting: the result for `CNc1cncc(C(=O)N2C[C@H](Nc3c(C(=O)N4C[C@@H](C)O[C@@H](C)C4)cc(Br)cc3[N+](=O)[O-])C[C@H]2C(=O)Nc2cc(Cl)ncn2)c1` [Example 441, (2S,4R)-4-((4-bromo-2-((2R,6S)-2,6-dimethylmorpholin-4-carbonyl)-6-nitrophenyl)amino)-N-(6-chloropyrimidin-4-yl)-1-(5-(methylamino)nicotinoyl) pyrrolidine-2-formamide] reads 10 to 50 nM; that for `CNc1cncc(C(=O)N2C[C@H](Nc3c(C(=O)N4C[C@@H](C)O[C@@H](C)C4)cc(Br)cc3[N+](=O)[O-])C[C@H]2C(=O)Nc2nn(-c3cccnc3)cc2Br)c1` [Example 424], 50 to 100 nM; that for `C[C@H]1CCCN(C(=O)c2cc(Br)cc([N+](=O)[O-])c2N[C@@H]2CCCN(C(=O)[C@H]3CC(=O)N[C@@H](C)C3)C2)C1` [Example 33, (4R,6S)-4-((R)-3-((4-bromo-2-((S)-3-methylpiperidin-1-carbonyl)-6-nitrophenyl)amino)piperidin-1-carbonyl)-6-methylpiperidin-2-one], 10 to 50 nM.
In the case of `CNc1cncc(C(=O)N2CCC[C@@H](Nc3c(C(=O)N4CCN(C(=O)C(F)(F)F)CC4)cc(Br)cc3[N+](=O)[O-])C2)c1` [Example 23, (R)-1-(4-(5-bromo-2-((1-(5-(methylamino)nicotinoyl)piperidin-3-yl)amino)-3-nitrobenzoyl)piperazin-1-yl)-2,2,2-trifluoroethan-1-one], the IC50 fell in the range of 10 to 50 nM.
For `CNc1cncc(C(=O)N2CCC[C@@H](Nc3c(C(=O)N4CCO[C@H](C5CC5)C4)cc(Br)cc3[N+](=O)[O-])C2)c1` [Example 342], the IC50 was in the range of 10 to 50 nM.
For `CNc1cncc(C(=O)N2CC(Nc3c(C(=O)N4CCN(C5CCCCC5)CC4)cc(Br)cc3[N+](=O)[O-])C(F)(F)C2)c1` (stereo not drawn) [Example 172], the IC50 was in the range of 10 to 50 nM.
Regarding `CNc1cncc(C(=O)N2CCC[C@@H](Nc3c(C(=O)N4CC(N)CC(F)(F)C4)cc(Br)cc3[N+](=O)[O-])C2)c1` (stereo partly drawn) [Example 263], the IC50 fell in the range of 10 to 50 nM.
Still for that read-out and setting: with `CNc1cncc(C(=O)N2C[C@H](Nc3c(C(=O)N4CCCCC4)cc(Br)cc3[N+](=O)[O-])C(F)(F)C2)c1` [Example 168] the figure was 10 to 50 nM; with `O=C(N[C@H]1CCOC[C@H]1Nc1c(C(=O)N2CCCCC2)cc(Br)cc1[N+](=O)[O-])c1cncc2cc(Cl)ccc12` [Example 184], < 10 nM; with `CNc1cncc(C(=O)N2CCC[C@@H](Nc3c(C(=O)N4CCC5(CC4)COC5)cc(Br)cc3[N+](=O)[O-])C2)c1` [Example 236], 10 to 50 nM.
In the case of `O=C(c1cccnc1)N1CCC[C@@H](Nc2c(C(=O)N3CCCCC3)cc(Br)cc2[N+](=O)[O-])C1` [Example 4, (R)-(5-bromo-2-((1-nicotinoylpiperidin-3-yl)amino)-3-nitrophenyl)(piperidin-1-yl)methanone], the IC50 lay in the range of 50 to 100 nM.
Still for that read-out and setting: the result for `CNc1cncc(C(=O)N2CCC[C@@H](Nc3c(C(=O)N4CCC(F)(F)C4)cc(Br)cc3[N+](=O)[O-])C2)c1` [Example 255] reads 10 to 50 nM; that for `O=C(c1cncc(Br)c1)N1CCC[C@@H](Nc2c(C(=O)N3CCCC3)cc(Br)cc2[N+](=O)[O-])C1` [Example 65], 10 to 50 nM; that for `CNc1cncc(C(=O)N2C[C@H](Nc3c(C(=O)N4C[C@H](C)C[C@H](C)C4)cc(Br)cc3[N+](=O)[O-])C3(CC3)C2)c1` [Example 86], 10 to 50 nM.
For the molecule `O=C(c1cncc(I)c1)N1CC(Nc2c(C(=O)N3CCCCC3)cc(Br)cc2[N+](=O)[O-])C(F)(F)C1` (stereo not drawn) [Example 165], the IC50 is 10 to 50 nM.
Take `CNc1cncc(C(=O)N2CCC[C@@H](Nc3c(C(=O)N4CCN(CCOC)[C@H](C)C4)cc(Br)cc3[N+](=O)[O-])C2)c1` [Example 238]: the IC50 is 10 to 50 nM.
As to `Cc1cc(C(=O)N2CCC[C@@H](Nc3c(C(=O)N4CCCCC4)cc(Br)cc3[N+](=O)[O-])C2)cc(=O)[nH]1` [Example 149], the IC50 fell in the range of 10 to 50 nM.
With `CNc1cncc(C(=O)N2CCC[C@@H](Nc3c(C(=O)N4CCC(F)(F)CC4)cc(Br)cc3[N+](=O)[O-])C2)c1` [Example 279], the IC50 is 10 to 50 nM.
Regarding `O=C(c1cc(Br)cc([N+](=O)[O-])c1N[C@@H]1CCCN(C(=O)c2cncc3cc(F)ccc23)C1)N1CCCCC1` [Example 103], the IC50 was 10 to 50 nM.
As to `O=C(c1cc(Br)cc([N+](=O)[O-])c1N[C@@H]1CCCN(C(=O)C2CNCc3ccccc32)C1)N1CCOCC1` (stereo partly drawn) [Example 142], the IC50 lay within 10 to 50 nM.
On the same count and under the same terms, with `CNc1cncc(C(=O)N2C[C@H](Nc3c(C(=O)N4C[C@@H](C)O[C@@H](C)C4)cc(Br)cc3[N+](=O)[O-])C[C@H]2C(=O)NC2CN(CCOC)C2)c1` [Example 413] the figure was 100 to 200 nM.
With `CNc1cncc(C(=O)N2C[C@H](Nc3c(C(=O)N4C[C@@H](C)O[C@@H](C)C4)cc(Br)cc3[N+](=O)[O-])C[C@H]2C(=O)NCCOC)c1` [Example 394], the IC50 was in the range of 50 to 100 nM.
Consider `CNc1cncc(C(=O)N2C[C@H](Nc3c(C(=O)N4C[C@@H](C)O[C@@H](C)C4)cc(Br)cc3[N+](=O)[O-])CC2C(=O)Nc2cc(Cl)n(C)n2)c1` (stereo partly drawn) [Example 407], for which the IC50 is 50 to 100 nM.
Still for that read-out and setting: the result for `CNc1cncc(C(=O)N2CCC[C@@H](Nc3c(C(=O)N4CC5CCC(C4)O5)cc(Br)cc3[N+](=O)[O-])C2)c1` [Example 269] reads 10 to 50 nM; that for `CNc1cncc(C(=O)N2CCC[C@@H](Nc3c(C(=O)N4CCC(O)(C(F)(F)F)CC4)cc(Br)cc3[N+](=O)[O-])C2)c1` [Example 240], 10 to 50 nM; that for `CNc1cncc(C(=O)N2C[C@H](Nc3c(C(=O)N4C[C@@H](C)O[C@@H](C)C4)cc(Br)cc3[N+](=O)[O-])C[C@H]2C(=O)Nc2ccnc(C(F)(F)F)c2)c1` [Example 427, (2S,4R)-4-((4-bromo-2-((2R,6S)-2,6-dimethylmorpholin-4-carbonyl)-6-nitrophenyl)amino)-1-(5-(methylamino)nicotinoyl)-N-(2-(trifluoromethyl)pyridin-4-yl) pyrrolidine-2-formamide], 100 to 200 nM.
The same measure, in the same setting: the result for `O=C(c1cncnc1)N1CCC[C@@H](Nc2c(C(=O)N3CCCCC3)cc(Br)cc2[N+](=O)[O-])C1` [Example 60] reads 50 to 100 nM.
`CNc1cncc(C(=O)N2C[C@H](Nc3c(C(=O)N4C[C@@H](C)O[C@@H](C)C4)cc(Br)cc3[N+](=O)[O-])C[C@H]2C(N)=O)c1` [Example 379, (2S,4R)-4-((4-bromo-2-((2R,6S)-2,6-dimethylmorpholin-4-carbonyl)-6-nitrophenyl)amino)-1-(5-(methylamino)nicotinoyl) pyrrolidin-2-formamide]: the IC50 was 10 to 50 nM.
On the same count and under the same terms, with `O=C(c1cncc(Br)c1)N1C[C@H](Nc2c(C(=O)N3CCCCC3)cc(Br)cc2[N+](=O)[O-])C(F)(F)C1` [Example 197] the figure was 10 to 50 nM; with `O=C(c1cncc(Br)c1)N1CC[C@@H](Nc2c(C(=O)N3CCCCC3)cc(Br)cc2C(F)(F)F)C1` [Example 47], 10 to 50 nM; with `CNc1cncc(C(=O)N2CCC[C@@H](Nc3c(C(=O)N4[C@H](C)COC[C@@H]4C)cc(Br)cc3[N+](=O)[O-])C2)c1` [Example 359], 10 to 50 nM.
`CNc1cncc(C(=O)N2CCC[C@@H](Nc3c(C(=O)N4CC(F)(F)C(F)(F)C4)cc(Br)cc3[N+](=O)[O-])C2)c1` [Example 273]: the IC50 was in the range of 10 to 50 nM.
In the case of `CNc1cncc(C(=O)N[C@H]2CCOC[C@H]2Nc2c(C(=O)N3C[C@@H](C)O[C@H](C)C3)cc(Br)cc2[N+](=O)[O-])c1` [Example 259], the IC50 lay in the range of 10 to 50 nM.
Regarding `C[C@@H]1CN(C(=O)c2cc(Br)cc([N+](=O)[O-])c2N[C@@H]2CCCN(C(=O)c3cc(=O)[nH]c4ccccc34)C2)C[C@H](C)O1` [Example 133], the IC50 lay within 10 to 50 nM.
As to `CNc1cncc(C(=O)N2CCC[C@@H](Nc3c(C(=O)N4CCC5(CCCN5)CC4)cc(Br)cc3[N+](=O)[O-])C2)c1` [Example 280], the IC50 was in the range of 10 to 50 nM.
In the case of `O=C(c1cncc(Br)c1)N1CCC[C@@H](Nc2c(C(=O)N3CCCCC3)cc(Br)cc2C(F)(F)F)C1` [Example 66], the IC50 fell in the range of 10 to 50 nM.
Regarding `CNc1cncc(C(=O)N2CCC[C@@H](Nc3c(C(=O)N4CCc5sccc5C4)cc(Br)cc3[N+](=O)[O-])C2)c1` [Example 277], the IC50 fell in the range of 10 to 50 nM.
Turning to `C#C[C@@H]1C[C@@H](Nc2c(C(=O)N3C[C@@H](C)O[C@@H](C)C3)cc(Br)cc2[N+](=O)[O-])CN1C(=O)c1cncc(NC)c1` [Example 373], the IC50 lay within 50 to 100 nM.
